How the values were obtained:
[1] = test system: WBC; assay: Real time RT-PCR gene expression in White Blood Cells; assay type: cell-based, human; settings: 3 μM, 24 h
Procedure: (§1) The leucocyte-enriched fraction (buffy coat) is obtained from a healthy donor. 10 ml buffy coat, diluted with 25 ml RPMI 1640 medium is layered on 4 ml Ficoll-Paque (Pharmacia) and centrifuged at 1′200×g for 15 min. The White Blood Cell (WBC) layer at the interface is removed, the cells are washed 2 times with RPMI 1640 medium to remove platelets. WBCs are cultured in RPMI 1640 medium plus 10% Fetal Calf Serum (FCS) in T-150 flask, 100 million cells/100 ml and are incubated for 1 h at 37° C. before treatment. 20 million tissue culture cells (about 80% confluent) or 200 million WBCs are incubated for 2 or 24 h in culture medium containing 3 μM of an EGFR tyrosine kinase inhibitor or 0.03% DMSO. Total RNA from cell pellet is isolated using the RNeasy kit (Qiagen). mRNA is isolated using the oligotex mRNA purification kit (Qiagen). The quality of the obtained mRNA is tested by real time RT-PCR using beta-Actin primers (PE Applied Biosystems) with an amplicon size of 300 base pairs (bp). The total RNA is used as a reference to calculate the amount of mRNA-enrichment in the oligotex purified samples. The primers and probes are designed from mRNA sequences within the coding region or in the 3′ untranslated region (Table 2). For real time RT-PCR, RNA concentrations between 1 and 50 ng/reaction are used to obtain signals between 15-35 cycles. For each RNA preparation RT-PCR reactions are performed with and without reverse transcriptase to check for genomic DNA contamination. In all RNA samples tested, genomic DNA contamination is less than 1%. To normalize for variability in the initial concentration and quality of the total RNA, Glyceraldehyde-3-phosphate dehydrogenase (GAPDH) is used as an endogenous reference in all quantification experiments. For RT-PCR a one step, two-enzyme system is chosen. The TaqMan PCR Core Reagent Kit (PE #N808-0228) plus the reverse transcriptase MuLV (PE Biosystems # N808-0018) and RNase inhibitor (Roche Diagnostics # 799 025) are mixed as described in the manufacturers protocol. Triplicate measurements are done for target and for reference reactions. […] RT-PCR reactions are done with RNA concentrations of 2.5, 5, 10, 20, 40 and 80 ng per reaction. The absolute value of the slope of (log input amount) vs. ΔCT should be <0.1. The ΔCT value is determined by subtracting the average reference CT values from the average target CT values of the three measurements. Relative quantification is performed in triplicates, reference and target, using the RT-PCR protocol described above. […] Expression levels for the three genes, calculated relative to NCI-H520, show big differences between the various cell types (Table 5). […]

[2] = test system: NCI-H520; assay: Real time RT-PCR gene expression in NCI-H520 cells; assay type: cell-based, human; settings: NCI-H520, 3 μM, 24 h; relative to DMSO-treated NCI-H520 calibrator
Procedure: as §1, with “20” for “The leucocyte-enriched fraction (buffy coat) is obtained from a healthy donor. 10 ml buffy coat, diluted with 25 ml RPMI 1640 medium is layered on 4 ml Ficoll-Paque (Pharmacia) and centrifuged at 1′200×g for 15 min. The White Blood Cell (WBC) layer at the interface is removed, the cells are washed 2 times with RPMI 1640 medium to remove platelets. WBCs are cultured in RPMI 1640 medium plus 10% Fetal Calf Serum (FCS) in T-150 flask, 100 million cells/100 ml and are incubated for 1 h at 37° C. before treatment. 20”, “The absolute value of the slope of (log input amount) vs. ΔCT should be <0.1.” left out

[3] = WBC, relative to DMSO-treated NCI-H520 calibrator

C[C@@H](Nc1ncnc2[nH]c(-c3ccc(O)cc3)cc12)c1ccccc1 [COMPOUND A, (R)-6-(4-hydroxy-phenyl)-4-[(1-phenyl-ethyl)-amino]-7H-pyrrolo[2,3-d]pyrimidine]
Relative Clusterin expression [1, 3]: 2.03 n-fold | Relative TRAIL expression [1, 3]: 22.73 n-fold | Relative VAC-beta expression [1, 3]: 2.16 n-fold | TRAIL repression in WBCs ([1]; WBCs, versus DMSO): 2.5 fold | Relative Clusterin expression [2]: 0.61 n-fold | Relative TRAIL expression [2]: 0.39 n-fold | Relative VAC-beta expression [2]: 0.75 n-fold

Reference: patent US20040043403A1, “Process for determining the biological activity of epidermal growth factor receptor tyrosine kinase inhibitors” (priority 2000, published 2004)
